Reference: patent publication US20160304552A1, “MODIFIED NUCLEIC ACID MOLECULES AND USES THEREOF” (MODERNA THERAPEUTICS, INC., priority 2013, published 2016)

Tests used:
[1] = test system: HeLa cells; assay: Transfection in HeLa cells, human EPO modRNA (EPO ELISA of supernatant); format: cell-based; settings: Table 22, 18 h to 22 h
Procedure: (§1) The day before transfection, 20.000 HeLa cells (ATCC no. CCL-2; Manassas, Va.) were harvested by treatment with Trypsin-EDTA solution (LifeTechnologies, Grand Island, N.Y.) and seeded in a total volume of 100 ul EMEM medium (supplemented with 10% FCS and 1× Glutamax) per well in a 96-well cell culture plate (Corning, Manassas, Va.). The cells were grown at 37° C. in 5% CO2 atmosphere overnight. Next day, 83 ng of Luciferase modRNA or 250 ng of human GCSF modRNA, harboring chemical modifications on the bases or the ribose units, were diluted in 10 ul final volume of OPTI-MEM (LifeTechnologies, Grand Island, N.Y.). Lipofectamine 2000 (LifeTechnologies, Grand Island, N.Y.) was used as transfection reagent and 0.2 μl were diluted in 10 ul final volume of OPTI-MEM. After 5 min incubation at room temperature, both solutions were combined and incubated additional 15 min at room temperature. Then the 20 μl were added to the 100 ul cell culture medium containing the HeLa cells. The plates were then incubated as described before.
(§2) After 18 h to 22 h incubation, cell culture supernatants of cells expressing human GCSF or human EPO were collected and centrifuged at 10.000 rcf for 2 min. The cleared supernatants were transferred and analyzed with a human GCSF-specific or EPO ELISA kit (both from R&D Systems, Minneapolis, Minn.; Cat. #s SCS50, DEP00, respectively) according to the manufacturer instructions. All samples were diluted until the determined values were within the linear range of the human GCSF or EPO ELISA standard curve.

[2] = test system: Rabbit Reticulocyte Lysate; assay: In vitro translation screen, human EPO modRNA (EPO ELISA); format: biochemical; settings: Table 20; 250 ng modRNA, 45 min, 30° C.
Procedure: (§3) The in vitro translation assay was done with the Rabbit Reticulocyte Lysate (nuclease-treated) kit (Promega, Madison, Wis.; Cat. #L4960) according to the manufacturer's instructions. The reaction buffer was a mixture of equal amounts of the amino acid stock solutions devoid of Leucine or Methionine provided in the kit.
(§4) The modRNAs of firefly Luciferase, human GCSF and human EPO, harboring chemical modifications on either the bases or the ribose units, were diluted in sterile nuclease-free water to a final concentration of 250 ng in 2.5 ul (Stock 100 ng/μl). The modRNA (250 ng) was added to the mixture of freshly prepared Rabbit Reticulocyte Lysate and reaction buffer.
(§5) Aliquots of the in vitro translation reaction containing human GCSF modRNA or human EPO mRNA were transferred and analyzed with a human GCSF-specific or EPO ELISA kit (both from R&D Systems, Minneapolis, Minn.; Cat. #s SCS50, DEP00 respectively) according to the manufacturer instructions. All samples were diluted until the determined values were within the linear range of the human GCSF or EPO ELISA standard curve.

[3] = test system: Rabbit Reticulocyte Lysate; assay: In vitro translation screen, human GCSF modRNA (GCSF ELISA); format: biochemical; settings: Table 20; 250 ng modRNA, 45 min, 30° C.
Procedure: as §3, §4, §5

[4] = test system: human PBMC; assay: PBMC cytokine assay, interferon-alpha production (IFN-alpha multi-subtype ELISA); format: cell-based
Procedure: 50 mL of human blood from three donors was received from Research Blood Components (Brighton, Mass.) in sodium heparin tubes. […] The tubes were centrifuged at 2000 rpm for 30 minutes with low acceleration and braking (Thermo, Waltham, Mass., 75004506). The tubes were removed and the buffy coat PBMC layers were gently transferred to a fresh 50 mL conical and washed with DPBS. The tubes were centrifuged at 1450 rpm for 10 minutes. The supernatant was aspirated and the PBMC pellets were resuspended and washed in 50 mL of DPBS. The tubes were centrifuged at 1450 rpm for 10 minutes. […] The cell suspensions were adjusted to a concentration of 3.0×10^6 cells/mL live cells. […] Within 30 minutes, transfection mixtures were added to each well at a volume of 50 μL per well. […] The transfection mixtures were then transferred to each of the human PBMC plates at 50 μL per well (6 wells per mRNA sample). The plates were then incubated at 37° C. […] In order to harvest the supernatant, plates were centrifuged at 1450 rpm for 5 min in a swinging plate rotor. The supernatant of 6 wells transfected with the same mRNA was carefully harvested and pooled in a single well of a fresh 96-well plate. Supernatants were either frozen or used fresh until ELISA analysis was done. The ability of unmodified and modified mRNA to trigger innate immune recognition as measured by interferon-alpha production.

[5] = test system: HeLa cells; assay: Transfection in HeLa cells, human GCSF modRNA (GCSF ELISA of supernatant); format: cell-based; settings: Table 22, 250 ng modRNA, 18 h to 22 h
Procedure: as §1, §2

[6] = test system: HeLa cells; assay: Transfection in HeLa cells, Luciferase modRNA (luciferase assay, relative light units); format: cell-based, human; settings: Table 22, 83 ng modRNA, Lipofectamine 2000, 18 h to 22 h
Procedure: as §1
After 18 h to 22 h incubation, cells expressing luciferase were lysed with 100 μl Passive Lysis Buffer (Promega, Madison, Wis.) according to manufacturer instructions. Aliquots of the lysates were transferred to white opaque polystyrene 96-well plates (Corning, Manassas, Va.) and combined with 100 ul complete luciferase assay solution (Promega, Madison, Wis.). The lysate volumes were adjusted or diluted until no more than 2 mio relative light units per well were detected for the strongest signal producing samples. […] The plate reader was a BioTek Synergy H1 (BioTek, Winooski, Vt.).

[7] = test system: Rabbit Reticulocyte Lysate; assay: In vitro translation screen, firefly Luciferase modRNA (luciferase assay, relative light units); format: biochemical; settings: Table 20; 250 ng modRNA, 45 min, 30° C.
Procedure: as §3, §4
After 45 min incubation, the reaction was stopped by placing the plate on ice. Aliquots of the in vitro translation reaction containing luciferase modRNA were transferred to white opaque polystyrene 96-well plates (Corning, Manassas, Va.; Cat. # CLS3912) and combined with 100 ul complete luciferase assay solution (Promega, Madison, Wis.). The volumes of the in vitro translation reactions were adjusted or diluted until no more than 2 million relative light units per well were detected for the strongest signal producing samples. […] The plate reader was a BioTek Synergy H1 (BioTek, Winooski, Vt.).

[8] = molecular target: T7 RNA polymerase (Escherichia phage T7, UniProt P00573); assay: In vitro transcription yields of modified mRNA; format: biochemical; settings: for EPO In Vitro Transcription yield: EPO mRNA made with the modified NTP(s); for GCSF In Vitro Transcription yield: GCSF mRNA made with the modified NTP(s); for Luc In Vitro Transcription yield: Luciferase mRNA made with the modified NTP(s)
Procedure: The in vitro transcription reaction generates mRNA containing modified nucleotides or modified RNA. The input nucleotide triphosphate (NTP) mix is made in-house using natural and unnatural NTPs.
A typical in vitro transcription reaction includes the following:
Incubation at 37° C. for 3 hr-5 hrs.
The crude IVT mix may be stored at 4° C. overnight for cleanup the next day. 1 U of RNase-free DNase is then used to digest the original template. After 15 minutes of incubation at 37° C., the mRNA is purified using Ambion's […]™ Kit (Austin, Tex.) following the manufacturer's instructions. This kit can purify up to 500 μg of RNA. Following the cleanup, the RNA is quantified using the NanoDrop and analyzed by agarose gel electrophoresis to confirm the RNA is the proper size and that no degradation of the RNA has occurred.
Modified mRNAs in TE buffer (1 μl) are used for Nanodrop UV absorbance readings to quantitate the yield of each modified mRNA from an in vitro transcription reaction (UV absorbance traces are not shown).

Sequence of T7 RNA polymerase (P00573 whole entry): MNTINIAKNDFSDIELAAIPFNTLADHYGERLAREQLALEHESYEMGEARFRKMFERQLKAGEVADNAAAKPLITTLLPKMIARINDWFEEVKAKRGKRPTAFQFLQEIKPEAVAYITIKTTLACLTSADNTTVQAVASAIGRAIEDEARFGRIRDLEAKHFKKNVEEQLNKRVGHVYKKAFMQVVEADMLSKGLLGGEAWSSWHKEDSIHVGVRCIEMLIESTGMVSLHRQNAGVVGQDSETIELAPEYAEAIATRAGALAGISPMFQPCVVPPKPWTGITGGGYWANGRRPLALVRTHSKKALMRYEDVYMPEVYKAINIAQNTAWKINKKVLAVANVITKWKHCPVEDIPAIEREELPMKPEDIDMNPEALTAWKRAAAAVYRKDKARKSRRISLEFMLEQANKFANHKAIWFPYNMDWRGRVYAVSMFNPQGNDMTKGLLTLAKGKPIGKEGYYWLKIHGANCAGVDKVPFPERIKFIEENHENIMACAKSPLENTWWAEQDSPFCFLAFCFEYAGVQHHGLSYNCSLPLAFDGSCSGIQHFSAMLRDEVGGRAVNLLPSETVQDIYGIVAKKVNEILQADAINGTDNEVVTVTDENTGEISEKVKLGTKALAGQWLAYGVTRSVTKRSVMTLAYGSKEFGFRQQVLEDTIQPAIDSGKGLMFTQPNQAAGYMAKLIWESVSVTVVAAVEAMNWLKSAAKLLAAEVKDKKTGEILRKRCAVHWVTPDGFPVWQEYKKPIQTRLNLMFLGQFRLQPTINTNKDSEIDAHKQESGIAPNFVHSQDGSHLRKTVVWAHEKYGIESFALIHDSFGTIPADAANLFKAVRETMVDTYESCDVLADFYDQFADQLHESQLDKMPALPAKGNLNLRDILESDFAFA

Structure (SMILES)	Epo Expression [1] [pg/mL]	Epo Expression [2] [pg/mL]	GCSF Expression [3] [pg/mL]	interferon-alpha concentration in PBMC supernatant ([4]; Luc mRNA, 1st value in cell) [pg/mL]	interferon-alpha concentration in PBMC supernatant ([4]; Luc mRNA, 2nd value in cell) [pg/mL]	interferon-alpha concentration in PBMC supernatant ([4]; Luc mRNA, 3rd value in cell) [pg/mL]	interferon-alpha concentration in PBMC supernatant ([4]; hEPO mRNA, 1st value in cell) [pg/mL]	interferon-alpha concentration in PBMC supernatant ([4]; hEPO mRNA, 2nd value in cell) [pg/mL]	interferon-alpha concentration in PBMC supernatant ([4]; hEPO mRNA, 3rd value in cell) [pg/mL]	interferon-alpha concentration in PBMC supernatant ([4]; hGCSF mRNA, 1st value in cell) [pg/mL]	interferon-alpha concentration in PBMC supernatant ([4]; hGCSF mRNA, 2nd value in cell) [pg/mL]	interferon-alpha concentration in PBMC supernatant ([4]; hGCSF mRNA, 3rd value in cell) [pg/mL]	GCSF Expression [5] [pg/mL]	Luc Expression (RLUs) [6] [RLUs]	Luc Expression (RLUs) [7] [RLUs]	EPO In Vitro Transcription yield [8] [mg]	GCSF In Vitro Transcription yield [8] [mg]	Luc In Vitro Transcription yield [8] [mg]	Luc (3 Donor samples) ([4]; Luc mRNA, 1st value in cell) [pg/mL]	Luc (3 Donor samples) ([4]; Luc mRNA, 2nd value in cell) [pg/mL]	further results
Nc1nc(=O)n([C@@H]2O[C@H](COP(=O)(O)OP(=O)(O)OP(=O)(O)O)C(O)C2O)cc1CO (stereo in doubt) [00901014005 (350), 5-Hydroxymethyl-CTP]	440300	9425	26600	7130	3680	8990	4960	3100	2412.5	6575	5800	8180	1151000	22160	154000	0.7778	0.6391	0.4073			
O=c1[nH]c(=S)[nH]cc1[C@@H]1O[C@H](COP(=O)(O)OP(=O)(O)OP(=O)(O)O)C(O)C1O (stereo in doubt) [00901015006 (193), 2-Thio-pseudo-UTP]	380600	12310	5988	530	1180	1400	-210	675	362.5	358.33	166.66	490	239300	1999	2198	1.081	0.5207	0.6123			
O=c1[nH]cc([C@@H]2O[C@H](COP(O)(=S)OP(=O)(O)OP(=O)(O)O)C(O)C2O)c(=O)[nH]1 (stereo in doubt) [00902015001 (194), PseudoU-alpha-thio-TP]	302800	2669	7763										320000	2015	5221	0.8632	0.5522	0.6479	20	170	Luc (3 Donor samples) ([4]; Luc mRNA, 3rd value in cell): -90 pg/mL; hEPO (3 Donor samples) ([4]; hEPO mRNA, 1st value in cell): -190 pg/mL; hEPO (3 Donor samples) ([4]; hEPO mRNA, 2nd value in cell): 75 pg/mL; hEPO (3 Donor samples) ([4]; hEPO mRNA, 3rd value in cell): 400 pg/mL; hGCSF (3 Donor samples) ([4]; hGCSF mRNA, 1st value in cell): 50 pg/mL; hGCSF (3 Donor samples) ([4]; hGCSF mRNA, 2nd value in cell): 508.33 pg/mL; hGCSF (3 Donor samples) ([4]; hGCSF mRNA, 3rd value in cell): 640 pg/mL
Cn1cc([C@@H]2O[C@H](COP(O)(=S)OP(=O)(O)OP(=O)(O)O)C(O)C2O)c(=O)[nH]c1=O (stereo in doubt) [00902015002 (195), 1-Methyl-pseudo-U-alpha-thio-TP]	348600	1694	4244										372100	4900	1201	0.7679	0.6582	0.6011	180	500	Luc (3 Donor samples) ([4]; Luc mRNA, 3rd value in cell): 180 pg/mL; hEPO (3 Donor samples) ([4]; hEPO mRNA, 1st value in cell): -290 pg/mL; hEPO (3 Donor samples) ([4]; hEPO mRNA, 2nd value in cell): 512.5 pg/mL; hEPO (3 Donor samples) ([4]; hEPO mRNA, 3rd value in cell): 475 pg/mL; hGCSF (3 Donor samples) ([4]; hGCSF mRNA, 1st value in cell): 425 pg/mL; hGCSF (3 Donor samples) ([4]; hGCSF mRNA, 2nd value in cell): 916.66 pg/mL; hGCSF (3 Donor samples) ([4]; hGCSF mRNA, 3rd value in cell): 1250 pg/mL
Nc1ccn([C@@H]2O[C@H](COP(O)(=S)OP(=O)(O)OP(=O)(O)O)C(O)C2O)c(=O)n1 (stereo in doubt) [Compound 00902014001, Alpha-thio-CTP]	195400	17000	26930										285000.00	1845	142900	0.2669	0.2650	0.3352			
